# Where two headings read alike, the source gives them in different places.
# How the values were obtained:
# Type in all cases: cell-based
# HIV-IIIb = assay: Antiviral assay in MT4 cells; details: MT4 cells infected with HIV-IIIb (0.004 m.o.i.), 5 days incubation, CellTiter-Glo, average over assays
# Protocol: (§1) For the antiviral assay utilizing MT4 cells, 0.4 μL of 189X test concentration of 3-fold serially diluted compound in DMSO was added to 40 μl of cell growth medium (RPMI 1640, 10% FBS, 1% penicillin/streptomycin, 1% L-Glutamine, 1% HEPES) in each well of 384-well assay plates (10 concentrations) in quadruplicate.
# (§2) 1 mL aliquots of 2×10^6 MT4 cells are pre-infected for 1 and 3 hours respectively at 37° C. with 25 μL (MT4) or of either cell growth medium (mock-infected) or a fresh 1:250 dilution of an HIV-IIIb concentrated ABI stock (0.004 m.o.i. for MT4 cells). Infected and uninfected cells are diluted in cell growth medium and 35 μL of 2000 (for MT4) cells is added to each well of the assay plates.
# (§3) Assay plates were then incubated in a 37° C. incubator. After 5 days of incubation, 25 μL of 2× concentrated CellTiter-Glo™ Reagent (catalog # G7573, Promega Biosciences, Inc., Madison, Wis.) was added to each well of the assay plate. Cell lysis was carried out by incubating at room temperature for 2-3 minutes, and then chemiluminescence was read using the Envision reader (PerkinElmer).
# [1] = Cytotoxicity (CC50) in MT4 cells within the antiviral assay; details: human, MT4 cells (mock-infected); MT4 cells, 5 days incubation, CellTiter-Glo; average over assays
# Protocol: as §1, §2, §3
# MT4 cells = assay: as above
# Protocol: as §1, §2, §3
# [2] = Human immunodeficiency virus 1, IIIB, MT4, 120 h
# [3] = MT4 cells, 5 days incubation, CellTiter-Glo, average over assays, read-out: CC50
SMILES,EC50 (HIV-IIIb; [2]) [µM],EC50 (HIV-IIIb) [µM],CC50 at 5 days [1] [µM],CC50 (MT4 cells; [3]) [µM],CC50 (MT4 cells) [µM]
O=C(NCc1ccc(F)c(Cl)c1F)c1cn2c(c(O)c1=O)C(=O)N1CCO[C@]13CCCC[C@H]23 (racemic) [Compound 96],0.00443,–,1.37,–,–
C[C@@H]1CN2C(=O)c3c(O)c(=O)c(C(=O)NCc4ccc(F)c(Cl)c4F)cn3[C@H]3CCC[C@]32O1 [Compound 73],–,0.00383,–,–,3.32
O=C(NCc1ccc(F)c(Cl)c1F)c1cn2c(c(O)c1=O)C(=O)N1CCCC[C@]13COCC[C@H]23 [Compound 26],–,0.00263,–,–,22.1
C[C@@H]1CO[C@@]23CCC[C@@H]2n2cc(C(=O)NCc4ccc(F)c(Cl)c4F)c(=O)c(O)c2C(=O)N13 [Compound 65],0.00413,–,5.53,–,–
C[C@@H]1CCO[C@@]23CCC[C@@H]2n2cc(C(=O)NCc4ccc(F)c(Cl)c4F)c(=O)c(O)c2C(=O)N13 [Compound 77],0.00702,–,7.27,–,–
C[C@H]1CCO[C@]23CCC[C@H]2n2cc(C(=O)NCc4ccc(F)c(Cl)c4F)c(=O)c(O)c2C(=O)N13 [Compound 80],0.0118,–,–,17.5,–
O=C(NCc1ccc(F)c(Cl)c1F)c1cn2c(c(O)c1=O)C(=O)N1CC=CC[C@]13CCOC[C@H]23 [Compound 14],0.00462,–,–,8.02,–
O=C(NCc1ccc(F)c(Cl)c1F)c1cn2c(c(O)c1=O)C(=O)N1CCCC[C@]13CCOC[C@H]23 [Compound 15],–,0.00464,–,–,7.52
C[C@H]1CO[C@]23CCC[C@H]2n2cc(C(=O)NCc4ccc(F)c(Cl)c4F)c(=O)c(O)c2C(=O)N13 [Compound 69],0.00802,–,15.6,–,–
C[C@@H]1CO[C@@]23CCOC[C@@H]2n2cc(C(=O)NCc4ccc(F)c(Cl)c4F)c(=O)c(O)c2C(=O)N13 [Compound 94],–,0.00188,3.99,–,–
C[C@H]1CO[C@]23CCC[C@H]2n2cc(C(=O)NCc4c(F)cc(F)cc4F)c(=O)c(O)c2C(=O)N13 [Compound 70],0.0047,–,16.4,–,–
O=C(NCc1ccc(F)c(Cl)c1F)c1cn2c(c(O)c1=O)C(=O)N1CC=CC[C@]13COCC[C@H]23 [Compound 25],–,0.00242,–,22.1,–
O=C(NCc1ccc(F)c(Cl)c1F)c1cn2c(c(O)c1=O)C(=O)N1CCCC[C@]13COC[C@H]23 [Compound 42],0.00349,–,7.48,–,–

# More lines, main results first:
EC50 (HIV-IIIb; [2]) [µM],EC50 (HIV-IIIb) [µM],SMILES,CC50 at 5 days [1] [µM],CC50 (MT4 cells; [3]) [µM],CC50 (MT4 cells) [µM]
0.00182,–,C[C@@H]1CO[C@@]23CCOC[C@@H]2n2cc(C(=O)NCc4ccc(F)c(Cl)c4F)c(=O)c(O)c2C(=O)N13 [Compound 100],–,7.53,–
0.0012,–,O=C(NCc1ccc(F)c(Cl)c1F)c1cn2c(c(O)c1=O)C(=O)N1CCS[C@]13COCC[C@H]23 (racemic) [Compound 103],–,10.8,–
0.00194,–,O=C(NCc1c(F)cc(F)cc1F)c1cn2c(c(O)c1=O)C(=O)N1CCCC[C@]13COCC[C@H]23 [Compound 31],–,33.6,–
0.00317,–,"C[C@@H]1CN2C(=O)c3c(O)c(=O)c(C(=O)NCc4ccc(F)c(Cl)c4F)cn3[C@@H]3CCC[C@@]32O1 (single isomer, unassigned) [Compound 74]",5.77,–,–
0.00253,–,C[C@@H]1CO[C@@]23CCC[C@@H]2n2cc(C(=O)NCc4c(F)cc(F)cc4F)c(=O)c(O)c2C(=O)N13 [Compound 66],6.92,–,–
0.00238,–,O=C(NCc1ccc(F)c(Cl)c1F)c1cn2c(c(O)c1=O)C(=O)N1CC=CC[C@]13COC[C@H]23 [Compound 41],9.19,–,–
0.00259,–,O=C(NCc1c(F)cc(F)cc1F)c1cn2c(c(O)c1=O)C(=O)N1CC=CC[C@]13COCC[C@H]23 [Compound 30],33.1,–,–
